# Assay results from PMC3563359 (Nature communications, 2012).
# What was measured:
# [1] = cited from earlier work
# EDHF-mediated responses = conditions: cited from earlier work
# SK2-a channels = SK2-a channels (Rattus norvegicus, UniProt P0DP29+P70604); assay: Potentiation of WT SK2-a channel currents, inside-out patch, TsA201 cells; assay type: cell-based
# [2] = ratio of EC50s, SK2-a, 200 nM Ca2+
# Sequence of SK2-a channels (P70604 whole entry, one chain of several): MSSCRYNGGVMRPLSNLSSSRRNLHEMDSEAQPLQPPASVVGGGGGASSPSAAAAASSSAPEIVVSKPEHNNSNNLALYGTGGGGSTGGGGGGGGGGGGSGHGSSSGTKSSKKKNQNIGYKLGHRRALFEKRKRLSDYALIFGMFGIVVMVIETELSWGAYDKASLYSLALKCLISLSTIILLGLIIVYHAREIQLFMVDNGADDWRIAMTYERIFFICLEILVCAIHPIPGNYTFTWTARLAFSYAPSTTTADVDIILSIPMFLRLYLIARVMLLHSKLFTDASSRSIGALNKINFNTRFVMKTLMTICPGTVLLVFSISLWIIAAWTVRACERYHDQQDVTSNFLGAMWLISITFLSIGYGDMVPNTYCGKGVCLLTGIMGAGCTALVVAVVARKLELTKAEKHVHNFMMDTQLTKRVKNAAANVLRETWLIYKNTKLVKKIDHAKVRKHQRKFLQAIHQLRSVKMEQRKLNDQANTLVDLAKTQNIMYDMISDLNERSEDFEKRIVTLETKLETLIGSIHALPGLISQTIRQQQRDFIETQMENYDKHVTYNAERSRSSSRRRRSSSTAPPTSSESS
EC50 (SK2-a channels) [mM],"Hill coefficient of potentiation of SK2-a channel activity (SK2-a channels; 200 nM Ca2+, inside-out patch)",fold less potent compared to NS309 (SK2-a channels; [2]),fold less potent than DCEBIO (SK2-a channels; [2]) [fold],Structure (SMILES),effect on blood pressure [1],effect on EDHF-mediated responses (EDHF-mediated responses)
,,,,"Nc1nc2c(ccc3ccccc32)s1 [SKA-31, Naphtho[1,2-d]thiazol-2-ylamine]",lowers the blood pressure,enhances
1.61 ± 0.2,1.81 ± 0.22,more than 3600 fold,~75,"NC(=O)Nc1ccccc1 [PHU, phenylurea]",,
